Reference: patent US20240239790A1, “7-Morpholino-1,6-Naphthyridin-5-yl Derivatives and Pharmaceutical Compositions Thereof Useful as DNA-PK Inhibitor” (adMare Therapeutics Society, priority 2021, published 2024)
Read-outs that look alike come from different tables or passages of the source.

What was measured:
[1] = Microsomal Stability Assay, mouse liver microsomes; assay type: in vitro ADME; conditions: for microsomal CLint at 0.1 uM: male, CD-1, pH 7.4, mouse liver microsomes 0.1 mg/mL, 0.1 uM compound; for Microsomal Stability Mouse % rem. 60 min: mouse liver microsomes
Description: Samples were then mixed and centrifuged. Supernatants were used for HPLC-MS/MS analysis. […] Peak areas corresponding to the test compound were recorded.

[2] = test system: pDNA-PK induction in HCT116 tumour spheroids; test: Multicellular tumour spheroid + radiation, pDNA-PK (ser2056) inhibition, immunohistochemical endpoint, HCT116; assay type: cell-based; conditions: Homo sapiens, 20 Gy, 20% O2
In short: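 HCT116 spheroids (~0.5 mm) in MEM/10% FBS, 20% O2, 37° C., pre-incubated 1 h with compound (10 or 5 μM down to 3.5 nM), irradiated 20 Gy, then 2 h further with compound. Cryosections immunostained for pDNA-PK ser2056; EC50 is concentration halving radiation-induced pDNA-PK.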

[3] = Hepatocyte Stability Assay, mouse hepatocytes; assay type: in vitro ADME; conditions: for hepatocyte CLint at 1 uM: male, CD-1, cryopreserved hepatocytes, pH 7.3, mouse hepatocytes 0.7 million cells per mL, 1 uM compound; for Hepatocyte Stability Mouse % rem. 120 min: mouse hepatocytes
Description: Cryopreserved mouse hepatocytes were obtained from a pool of 10 or more male CD-1 mice. Cryopreserved human hepatocytes were obtained from a pool of 10 or more donors of mixed gender. Final hepatocyte density was 0.7 million viable cells per mL and test compound concentration was 1 uM with a maximum of 0.01% DMSO. Cryopreserved hepatocytes were thawed, washed, and resuspended in Krebs-Heinslet buffer (pH 7.3). The reaction was initiated by adding the test compound into cell suspension and incubated for 0, […], 1, 1.5, and 2 h, respectively, at 37° C./5% C02. The reaction was stopped by adding acetonitrile into the incubation mixture. Samples were then mixed, transferred completely to another 96-well plate, and centrifuged. Supernatants were used for HPLC-MS/MS analysis. […] Peak areas corresponding to the test compound were recorded.

[4] = HCT-116, 2 hours following radiation, Example 9 Study 2, read-out: Spheroid Cell line: HCT116 Immunohistochemical endpoint pDNA-PK inhibition EC50
[5] = HCT-116, Spheroid, Cell Line: HCT115 (so in the source), 2 hours following radiation, Example 7, read-out: EC50, Immunohistochemical endpoint, pDNA-PK inhibition

| SMILES | microsomal CLint at 0.1 uM [1] | Microsomal Stability Mouse % rem. 60 min [1] | EC50 [2, 4] | EC50 [2, 5] | hepatocyte CLint at 1 uM [3] | Hepatocyte Stability Mouse % rem. 120 min [3] | EC50 ([2]; HCT-116, 2 h, spheroids, Example 8, read-out: Cell line: HCT116 Immunohistochemical endpoint pDNA-PK inhibition EC50) |
| --- | --- | --- | --- | --- | --- | --- | --- |
| c1cnc2cc(N3CCOCC3)nc(O[C@H]3CC[C@@H](Nc4ncc(OCCN5CCOCC5)cn4)CC3)c2c1 [Compound 68, N-((1s,4s)-4-((7-Morpholino-1,6-naphthyridin-5-yl)oxy)cyclohexyl)-5-(2-morpholinoethoxy)pyrimidin-2-amine] | < 116 µL/min/mg | F (% remaining = 25-50%) | 0.5 to 1 µM | 0.5 to 1 µM | < 8.2 µL/min/1e6 cells | G (% remaining = 50-75%) |  |
| O=c1[nH]c2cnc(N[C@H]3CC[C@@H](Oc4nc(N5CCOCC5)cc5ncccc45)CC3)nc2n1C1CCOCC1 [Compound 95, 2-(((1s,4s)-4-((7-Morpholino-1,6-naphthyridin-5-yl)oxy)cyclohexyl)amino)-9-(tetrahydro-2H-pyran-4-yl)-7,9-dihydro-8H-purin-8-one] |  |  | 0.01 to 0.5 µM | 0.01 to 0.5 µM | > 8.2 µL/min/1e6 cells | F (% remaining = 25-50%) |  |
| Cn1c(=O)n(C2CCOCC2)c2nc(N[C@H]3CC[C@@H](Oc4nc(N5CCOCC5)cc5ncccc45)CC3)ncc21 [Compound 96, 7-Methyl-2-(((1s,4s)-4-((7-morpholino-1,6-naphthyridin-5-yl)oxy)cyclohexyl)amino)-9-(tetrahydro-2H-pyran-4-yl)-7,9-dihydro-8H-purin-8-one] |  |  | 0.5 to 1 µM | 0.5 to 1 µM | < 8.2 µL/min/1e6 cells | G (% remaining = 50-75%) |  |
| O=C(Cn1c(=O)n(C2CCOCC2)c2nc(N[C@H]3CC[C@@H](Oc4nc(N5CCOCC5)cc5ncccc45)CC3)ncc21)N1CCOCC1 [Compound 98, 2-(((1s,4s)-4-((7-Morpholino-1,6-naphthyridin-5-yl)oxy)cyclohexyl)amino)-7-(2-morpholino-2-oxoethyl)-9-(tetrahydro-2H-pyran-4-yl)-7,9-dihydro-8H-purin-8-one] |  |  | 0.01 to 0.5 µM | 0.01 to 0.5 µM | < 8.2 µL/min/1e6 cells | G (% remaining = 50-75%) |  |
| O=C(Cn1c(=O)n(C2CCOCC2)c2nc(N[C@H]3CC[C@@H](Oc4nc(N5CCOCC5)cc5ncccc45)CC3)ncc21)N1CCC1 [Compound 99, 7-(2-(Azetidin-1-yl)-2-oxoethyl)-2-(((1s,4s)-4-((7-morpholino-1,6-naphthyridin-5-yl)oxy)cyclohexyl)amino)-9-(tetrahydro-2H-pyran-4-yl)-7,9-dihydro-8H-purin-8-one] |  |  | 0.01 to 0.5 µM | 0.01 to 0.5 µM | < 8.2 µL/min/1e6 cells | G (% remaining = 50-75%) |  |
| Cn1c(=O)[nH]c2cnc(N[C@H]3CC[C@@H](Oc4nc(N5CCOCC5)cc5ncccc45)CC3)nc21 [Compound 100, 9-Methyl-2-(((1s,4s)-4-((7-morpholino-1,6-naphthyridin-5-yl)oxy)cyclohexyl)amino)-7,9-dihydro-8H-purin-8-one] |  |  | 0.01 to 0.5 µM | 0.01 to 0.5 µM | > 8.2 µL/min/1e6 cells | E (% remaining = 0-25%) |  |
| Cn1c(=O)n(C)c2nc(N[C@H]3CC[C@@H](Oc4nc(N5CCOCC5)cc5ncccc45)CC3)ncc21 [Compound 101, 7,9-Dimethyl-2-(((1s,4s)-4-((7-morpholino-1,6-naphthyridin-5-yl)oxy)cyclohexyl)amino)-7,9-dihydro-8H-purin-8-one] |  |  | 0.01 to 0.5 µM | 0.01 to 0.5 µM | > 8.2 µL/min/1e6 cells | F (% remaining = 25-50%) |  |
| CN(C)C(=O)Cn1c(=O)n(C)c2nc(N[C@H]3CC[C@@H](Oc4nc(N5CCOCC5)cc5ncccc45)CC3)ncc21 [Compound 102, N,N-Dimethyl-2-(9-methyl-2-(((1s,4s)-4-((7-morpholino-1,6-naphthyridin-5-yl)oxy)cyclohexyl)amino)-8-oxo-8,9-dihydro-7H-purin-7-yl)acetamide] |  |  | 0.01 to 0.5 µM | 0.01 to 0.5 µM | < 8.2 µL/min/1e6 cells | H (% remaining = 75-100%) |  |
| CS(=O)(=O)NC(=O)c1cnc2cc(N3CCOCC3)nc(O[C@H]3CC[C@@H](n4ccnc4)CC3)c2c1 [Compound 175, 5-(((1s,4s)-4-(1H-imidazol-1-yl)cyclohexyl)oxy)-N-(methylsulfonyl)-7-morpholino-1,6-naphthyridine-3-carboxamide] | < 116 µL/min/mg | H (% remaining = 75-100%) | 10 to 100 µM | 10 to 100 µM |  |  | 10 to 100 µM |
| O=S(=O)(CF)Nc1cnc2cc(N3CCOCC3)nc(O[C@H]3CC[C@@H](Nc4ncccn4)CC3)c2c1 [Compound 192, 1-fluoro-N-(7-morpholino-5-(((1s,4s)-4-(pyrimidin-2-ylamino)cyclohexyl)oxy)-1,6-naphthyridin-3-yl)methanesulfonamide] |  |  | 0.01 to 0.5 µM | 0.01 to 0.5 µM | < 8.2 µL/min/1e6 cells | H (% remaining = 75-100%) |  |
| O=S(=O)(CC(F)F)Nc1cnc2cc(N3CCOCC3)nc(O[C@H]3CC[C@@H](Nc4ncccn4)CC3)c2c1 [Compound 193, 2,2-difluoro-N-(7-morpholino-5-(((1s,4s)-4-(pyrimidin-2-ylamino)cyclohexyl)oxy)-1,6-naphthyridin-3-yl)ethane-1-sulfonamide] |  |  | 1 to 10 µM | 1 to 10 µM | > 8.2 µL/min/1e6 cells | F (% remaining = 25-50%) |  |
| CS(=O)(=O)c1cnc2cc(N3CCOCC3)nc(O[C@H]3CC[C@@H](Nc4ncccn4)CC3)c2c1 [Compound 200b, N-((1s,4s)-4-((3-(methylsulfonyl)-7-morpholino-1,6-naphthyridin-5-yl)oxy)cyclohexyl)pyrimidin-2-amine] |  |  | 1 to 10 µM | 1 to 10 µM | < 8.2 µL/min/1e6 cells | G (% remaining = 50-75%) |  |
| CS(=O)(=O)c1cnc2cc(N3CCOCC3)nc(O[C@H]3CC[C@@H](Nc4ncc(OCC(=O)N5CCOCC5)cn4)CC3)c2c1 [Compound 204a, 2-((2-(((1s,4s)-4-((3-(methylsulfonyl)-7-morpholino-1,6-naphthyridin-5-yl)oxy)cyclohexyl)amino)pyrimidin-5-yl)oxy)-1-morpholinoethan-1-one] |  |  | 1 to 10 µM | 1 to 10 µM | < 8.2 µL/min/1e6 cells | H (% remaining = 75-100%) |  |
| CS(=O)(=O)c1cnc2cc(N3CCOCC3)nc(O[C@H]3CC[C@@H](Nc4ncnc5ccoc45)CC3)c2c1 [Compound 204b, N-((1s,4s)-4-((3-(methylsulfonyl)-7-morpholino-1,6-naphthyridin-5-yl)oxy)cyclohexyl)furo[3,2-d]pyrimidin-4-amine] |  |  | 0.01 to 0.5 µM | 0.01 to 0.5 µM | < 8.2 µL/min/1e6 cells | G (% remaining = 50-75%) |  |
| CS(=O)(=O)c1cnc2cc(N3CCOCC3)nc(O[C@H]3CC[C@@H](NC(=O)c4ncco4)CC3)c2c1 [Compound 204c, N-((1s,4s)-4-((3-(methylsulfonyl)-7-morpholino-1,6-naphthyridin-5-yl)oxy)cyclohexyl)oxazole-2-carboxamide] |  |  | 1 to 10 µM | 1 to 10 µM | < 8.2 µL/min/1e6 cells | G (% remaining = 50-75%) |  |
